Data from article PMC9609996, “SAR Study and Molecular Mechanism Investigation of Novel Naphthoquinone-furan-2-cyanoacryloyl Hybrids with Antitumor Activity” (Pharmaceutics, 2022).
Like-named read-outs stand apart in the source and are kept apart here.

Tests used:
HeLa = experiment: CCK-8 anti-proliferation assay, HeLa; type: cell-based, human; settings: mean ± SD; for inhibition at 20 µM: read-out: Inhibition Rate (%) at 20 μM HeLa
Protocol: (§1) Human cervical cancer HeLa, human prostate cancer PC3, human colonic carcinoma HCT116, human lung carcinoma A549, human breast cancer MDA-MB-231, mouse melanoma B16, human ovarian cancer SKOV3, human hepatoma Hep3B, and human liver L02 cells were purchased from the Cell Bank of Shanghai Institute of Biochemistry and Cell Biology, Chinese Academy of Sciences (Shanghai, China). The HeLa, A549, B16, PC3, MDA-MB-231, HCT116, and L02 cells were cultured in Dulbecco’s modified Eagle medium (DMEM, Gibco Inc.; Gaithersburg, MD, USA). All cultures were supplied with 10% fetal bovine serum (FBS; YHSM, Beijing, China), 100 IU/mL of penicillin, and 100 μg/mL of streptomycin, and cells were incubated at 37 °C in an atmosphere of 5% CO2.
(§2) A CCK-8 kit (MCE, USA) was used to perform a CCK-8 assay. Cells were plated and grown in the 96-well plates for the indicated period (48 h) in the incubator, followed by an incubation with the CCK-8 solutions for 1–4 h. Subsequently, the absorbance (450 nm) was measured by a microplate reader. The median inhibitory concentration (IC50) was determined from the dose–response curve. Experiments were performed in a triplicate.

PC3 = experiment: CCK-8 anti-proliferation assay, PC3; type: cell-based, human; settings: mean ± SD; for inhibition at 20 µM: PC-3, 20 μM, read-out: Inhibition Rate (%) at 20 μM PC3
Protocol: as §1, §2

A549 = experiment: CCK-8 anti-proliferation assay, A549; type: cell-based, human; settings: mean ± SD; for inhibition at 20 µM: A549, 20 μM, read-out: Inhibition Rate (%) at 20 μM A549
Protocol: as §1, §2

HCT116 = experiment: CCK-8 anti-proliferation assay, HCT116; type: cell-based, human; settings: mean ± SD; for inhibition at 20 µM: HCT-116, 20 μM, read-out: Inhibition Rate (%) at 20 μM HCT116
Protocol: as §1, §2

[1] = test system: four cancer cell lines (HeLa, PC3, A549, and HCT116); experiment: CCK-8 inhibition rates over four cancer cell lines; type: cell-based; settings: Homo sapiens
Protocol: First, the inhibition rates at 20 μM for all newly synthesized compounds were evaluated on four cancer cell lines (HeLa, PC3, A549, and HCT116) by a CCK-8 assay. […] A variety of aliphatic amine substituents were well tolerated (4e, 4f, 5c, and 8f).
as §1, §2

[2] = test system: various cancer cell lines; set-up: method as in PMID 23651330; settings: read-out: IC50 against various cancer cell lines; cited from earlier work
MDA-MB-231 = experiment: CCK-8 anti-proliferation assay, MDA-MB-231; type: cell-based, human; settings: Homo sapiens, MDA-MB-231, 48 h, mean ± SD
Protocol: as §1, §2

B16 = experiment: CCK-8 anti-proliferation assay, B16; type: cell-based; settings: Mus musculus, B16, 48 h, B16 mouse melanoma, mean ± SD
Protocol: as §1, §2

SKOV3 = experiment: CCK-8 anti-proliferation assay, SKOV3; type: cell-based; settings: Homo sapiens, SK-OV-3, 48 h, mean ± SD
Protocol: as §1, §2

Hep3B = experiment: CCK-8 anti-proliferation assay, Hep3B; type: cell-based, human; settings: Homo sapiens, 48 h, mean ± SD
Protocol: as §1, §2

L02 cells = experiment: CCK-8 assay on normal cells, L02; type: cell-based; settings: L02 human normal hepatocytes, 48 h, mean ± SD
Protocol: as §1, §2

[3] = HeLa, PC3, A549, HCT116, CCK-8, read-out: inhibition rate, span over the four cancer cell lines
[4] = one or two of the four cell lines, read-out: inhibition rates against one or two types of tumor cell lines

COc1cc(-c2ccc(/C=C(\C#N)C(=O)NCCN3CCOCC3)o2)c(OC)c2ccccc12 [Compound 4c, (E)-2-cyano-3-(5-(1,4-dimethoxynaphthalen-2-yl)furan-2-yl)-N-(2-morpholinoethyl)acrylamide]
inhibition at 20 µM (HeLa; Homo sapiens, 20 μM): 24.23 ± 0.01% | inhibition at 20 µM (PC3; Homo sapiens): 8.99 ± 0.09% | inhibition at 20 µM (A549; Homo sapiens): 11.25 ± 0.05% | inhibition at 20 µM (HCT116; Homo sapiens): 18.78 ± 0.04% | inhibition at 20 µM [1, 3]: 8.99 to 24.2%

COc1cc(-c2ccc(/C=C(\C#N)C(=O)NC3CC(C)(C)NC(C)(C)C3)o2)c(OC)c2ccccc12 [Compound 4e, (E)-2-cyano-3-(5-(1,4-dimethoxynaphthalen-2-yl)furan-2-yl)-N-(2,2,6,6-tetramethylpiperidin-4-yl)acrylamide]
inhibition at 20 µM (HeLa; Homo sapiens, 20 μM): 59.1 ± 0.21% | inhibition at 20 µM (PC3; Homo sapiens): 15.8 ± 0.33% | inhibition at 20 µM (A549; Homo sapiens): 59.49 ± 0.34% | inhibition at 20 µM (HCT116; Homo sapiens): 40.53 ± 0.03% | inhibition at 20 µM [1, 4]: > 50%

COc1cc(-c2ccc(/C=C(\C#N)C(=O)Nc3ccccc3)o2)c(OC)c2ccccc12 [Compound 4h, (E)-2-cyano-3-(5-(1,4-dimethoxynaphthalen-2-yl)furan-2-yl)-N-phenylacrylamide]
inhibition at 20 µM (HeLa; Homo sapiens, 20 μM): 9.49 ± 0.16% | inhibition at 20 µM (PC3; Homo sapiens): 19.53 ± 0.17% | inhibition at 20 µM (A549; Homo sapiens): 0.25 ± 0.13% | inhibition at 20 µM (HCT116; Homo sapiens): 11.5 ± 0.14% | inhibition at 20 µM [1, 3]: 0.25 to 32.4%

COc1cc(N2CCC(N(C)C)CC2)ccc1NC(=O)c1ccc(-c2cc(OC)c3ccccc3c2OC)o1 [Compound 8i, 5-(1,4-Dimethoxynaphthalen-2-yl)-N-(4-(4-(dimethylamino)piperidin-1-yl)-2-methoxyphenyl)furan-2-carboxamide]
inhibition at 20 µM (HeLa; Homo sapiens, 20 μM): 55.62 ± 0.12% | inhibition at 20 µM (PC3; Homo sapiens): 25.11 ± 0.05% | inhibition at 20 µM (A549; Homo sapiens): 31.67 ± 0.07% | inhibition at 20 µM (HCT116; Homo sapiens): 47.78 ± 0.19% | inhibition at 20 µM [1, 4]: > 50%

NS(=O)(=O)c1cccc2c1C(=O)C=C(Nc1cccnc1)C2=O [Ly-5]
IC50 [2]: 0.5 to 1.4 µM

C[C@H](NC(=O)/C(C#N)=C/c1cccc(Br)n1)c1ccccc1 [WP1066, reference compound]
IC50 (HeLa; Homo sapiens, 48 h): 7.06 ± 1.17 µM | IC50 (PC3; Homo sapiens, PC-3, 48 h, 48 h): 1.2 ± 0.03 µM | IC50 (A549; Homo sapiens, A549, 48 h, 48 h): 7.55 ± 0.06 µM | IC50 (HCT116; Homo sapiens, HCT-116, 48 h): 7.22 ± 3.14 µM | IC50 (MDA-MB-231): 8.17 ± 0.16 µM | IC50 (B16): 24.1 ± 0.7 µM | IC50 (SKOV3): 4.66 ± 0.13 µM | IC50 (Hep3B): 4.36 ± 0.05 µM | IC50 (L02 cells): 3.45 ± 0.41 µM

(E)-2-cyano-3-(5-(1,4-dioxo-1,4-dihydronaphthalen-2-yl)furan-2-yl)-N-(3-(trifluoromethyl)phenyl)acrylamide [Compound 5g]
Inhibition Rate (%) at 20 μM HeLa (HeLa; 20 μM): 27.98 ± 0.36% | Inhibition Rate (%) at 20 μM PC3 (PC3; 20 μM): 11.20 ± 0.02% | Inhibition Rate (%) at 20 μM A549 (A549; 20 μM): 32.35 ± 0.95% | Inhibition Rate (%) at 20 μM HCT116 (HCT116; 20 μM): 28.25 ± 0.04%
